#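 A five-concentration, 48-hour dose response in 96-well plates underlies each endpoint, interpolated linearly between surrounding concentrations. The concentration for 50% growth inhibition is given as GI50.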 Calls of active or inactive are those of the source. No stated cut-off is given here; in the data, active = GI50 up to about 1.1 µM and inactive = higher. Where a SMILES comes first, the peptide text is derived from it. The star is where a group is joined. Boc = CC(C)(C)OC(=O)*
# Columns and labels:
# Assay in all cases: NCI tumour cell line growth inhibition, 48 h
# [1] = system: SN12C
# [2] = system: OVCAR-5
# [3] = system: NCI-H522
# [4] = system: HCT-116
# [5] = system: RXF 393
# [6] = system: A549
# [7] = system: SK-OV-3
# [8] = system: MCF7
# [9] = system: Malme-3M
# [10] = system: SF-268
# [11] = system: NCI/ADR-RES
# [12] = system: NCI-H460
# [13] = system: MDA-MB-231
# [14] = system: K562
# [15] = system: NCI-H23
# [16] = system: T47D
# [17] = system: SF-539
# [18] = system: DU-145
# [19] = system: HL-60
# [20] = system: SK-MEL-28
Compound,GI50 [1],GI50 [2],GI50 [3],GI50 [4],GI50 [5],GI50 [6],GI50 [7],GI50 [8],GI50 [9],GI50 [10],GI50 [11],GI50 [12],GI50 [13],GI50 [14],GI50 [15],GI50 [16],GI50 [17],GI50 [18],GI50 [19],GI50 [20]
CCc1n[nH]c(=O)n1NC(=O)CCCC(=O)O,> 100 µM (inactive),> 100 µM (inactive),> 100 µM (inactive),> 100 µM (inactive),> 100 µM (inactive),> 100 µM (inactive),> 100 µM (inactive),> 100 µM (inactive),> 100 µM (inactive),> 100 µM (inactive),> 100 µM (inactive),> 100 µM (inactive),> 100 µM (inactive),> 100 µM (inactive),> 100 µM (inactive),> 100 µM (inactive),> 100 µM (inactive),–,–,–
Cn1/c(=N\S(=O)(=O)c2ccccc2)n(S(=O)(=O)c2ccccc2)c2ccccc21,87.3 µM (inactive),> 100 µM (inactive),50.4 µM (inactive),48.9 µM (inactive),95.5 µM (inactive),47.5 µM (inactive),> 100 µM (inactive),–,47.6 µM (inactive),54.1 µM (inactive),38.6 µM (inactive),–,> 100 µM (inactive),39.9 µM (inactive),61 µM (inactive),40.6 µM (inactive),–,72.8 µM (inactive),0.598 µM (active),> 100 µM (inactive)
CC/C(C)=C1\OC(=O)C(C)C(O)C(Cc2cccnc2)NC(=O)C(NC(=O)c2ncccc2O)C(C)OC1=O (configuration not stated),94 µM (inactive),> 100 µM (inactive),–,82.2 µM (inactive),–,74.3 µM (inactive),71.9 µM (inactive),> 100 µM (inactive),39.5 µM (inactive),58.3 µM (inactive),–,63.1 µM (inactive),> 100 µM (inactive),> 100 µM (inactive),> 100 µM (inactive),> 100 µM (inactive),> 100 µM (inactive),> 100 µM (inactive),62.8 µM (inactive),> 100 µM (inactive)
O=C(Nc1nc2ccc([N+](=O)[O-])cc2s1)c1cc([N+](=O)[O-])ccc1Cl,1.52 µM (inactive),4.26 µM (inactive),1.68 µM (inactive),1.71 µM (inactive),3.69 µM (inactive),–,2.94 µM (inactive),–,3.01 µM (inactive),3.41 µM (inactive),1.91 µM (inactive),–,2.55 µM (inactive),–,2.3 µM (inactive),3.57 µM (inactive),2.68 µM (inactive),3.75 µM (inactive),–,–
C=CC[C@@H]1C(=O)[C@@]2(O[Si](C(C)C)(C(C)C)C(C)C)CC[C@@H]1C[C@H]2NC(=O)OCC(Cl)(Cl)Cl,45.3 µM (inactive),> 100 µM (inactive),< 0.01 µM (active),27.9 µM (inactive),–,> 100 µM (inactive),> 100 µM (inactive),–,–,> 100 µM (inactive),> 100 µM (inactive),35.5 µM (inactive),> 10 µM (inactive),61.8 µM (inactive),> 100 µM (inactive),> 100 µM (inactive),–,> 100 µM (inactive),–,> 100 µM (inactive)
CC(C)(SCc1ccccc1)C(N)C(=O)O (configuration not stated),> 100 µM (inactive),> 100 µM (inactive),> 100 µM (inactive),> 100 µM (inactive),> 100 µM (inactive),> 100 µM (inactive),–,–,> 100 µM (inactive),> 100 µM (inactive),> 100 µM (inactive),> 100 µM (inactive),> 100 µM (inactive),> 100 µM (inactive),> 100 µM (inactive),> 100 µM (inactive),–,> 100 µM (inactive),> 100 µM (inactive),> 100 µM (inactive)
c1ccc2c(c1)ccc1nc(-c3ccc4c(c3)OCO4)c3c(c12)CCC3,> 100 µM (inactive),> 100 µM (inactive),–,88.9 µM (inactive),–,95.9 µM (inactive),> 100 µM (inactive),68.1 µM (inactive),> 100 µM (inactive),> 100 µM (inactive),59.2 µM (inactive),45.3 µM (inactive),67.5 µM (inactive),20.5 µM (inactive),60.3 µM (inactive),52.4 µM (inactive),> 100 µM (inactive),–,–,> 100 µM (inactive)
[N-]=[N+]=NC1=C(c2ccccc2)C(=O)c2cccc3cccc1c23,29.9 µM (inactive),48.5 µM (inactive),–,5.48 µM (inactive),19.7 µM (inactive),11.9 µM (inactive),25.8 µM (inactive),26.9 µM (inactive),18.8 µM (inactive),22.3 µM (inactive),45.5 µM (inactive),5.79 µM (inactive),–,7.13 µM (inactive),24.9 µM (inactive),5.12 µM (inactive),16.1 µM (inactive),28.9 µM (inactive),16.6 µM (inactive),33.3 µM (inactive)
COc1cc(Br)cc2c1O[C@H]1C(=O)CC3CC21CCN3C (some centres not stated),–,> 100 µM (inactive),–,42 µM (inactive),–,94.4 µM (inactive),> 100 µM (inactive),34.1 µM (inactive),> 100 µM (inactive),80 µM (inactive),67.5 µM (inactive),–,–,19.8 µM (inactive),24.3 µM (inactive),23.2 µM (inactive),> 100 µM (inactive),–,16.4 µM (inactive),> 100 µM (inactive)
CCOC(=O)NC(=S)c1ccc(O)c2ccccc12,–,> 100 µM (inactive),16.9 µM (inactive),84.7 µM (inactive),–,44.9 µM (inactive),45.1 µM (inactive),72.1 µM (inactive),33.1 µM (inactive),12.4 µM (inactive),25.8 µM (inactive),38.8 µM (inactive),–,42.1 µM (inactive),55.5 µM (inactive),> 100 µM (inactive),53.8 µM (inactive),> 100 µM (inactive),1.47 µM (inactive),32.4 µM (inactive)
CC(C)(O)/C=C\P(C)(=O)c1ccccc1 (configuration not stated),> 100 µM (inactive),> 100 µM (inactive),> 100 µM (inactive),> 100 µM (inactive),> 100 µM (inactive),> 100 µM (inactive),> 100 µM (inactive),> 100 µM (inactive),> 100 µM (inactive),> 100 µM (inactive),> 100 µM (inactive),> 100 µM (inactive),–,> 100 µM (inactive),> 100 µM (inactive),> 100 µM (inactive),> 100 µM (inactive),> 100 µM (inactive),–,> 100 µM (inactive)
COC(=O)C(Cc1c[nH]c2ccccc12)NC(=O)C(Cc1c[nH]c2ccccc12)NC(=O)C(Cc1c[nH]c2ccccc12)NC(=O)OC(C)(C)C (stereo not drawn) (Boc-Trp-Trp-Trp-OMe; configuration not given here),18.9 µM (inactive),17.9 µM (inactive),–,16.2 µM (inactive),8.93 µM (inactive),39.2 µM (inactive),–,> 10 µM (inactive),> 100 µM (inactive),–,–,20.2 µM (inactive),30.1 µM (inactive),27 µM (inactive),16.2 µM (inactive),4.67 µM (inactive),–,–,16.1 µM (inactive),17.7 µM (inactive)
CCOC(=O)c1c(N2CCCC2)nsc1Nc1ccc(F)cc1,36.3 µM (inactive),25.4 µM (inactive),33.5 µM (inactive),29.7 µM (inactive),13.6 µM (inactive),27.9 µM (inactive),41 µM (inactive),–,21.9 µM (inactive),73.6 µM (inactive),34 µM (inactive),27 µM (inactive),39.4 µM (inactive),29.8 µM (inactive),27.1 µM (inactive),9.57 µM (inactive),64.7 µM (inactive),45.3 µM (inactive),20.4 µM (inactive),54.3 µM (inactive)
COc1cc2c(cc1-c1coc3cc(OCC=C(C)C)ccc3c1=O)OCO2,27.8 µM (inactive),55.6 µM (inactive),15.5 µM (inactive),17.2 µM (inactive),–,28.6 µM (inactive),41.5 µM (inactive),28.6 µM (inactive),–,43.4 µM (inactive),–,19.1 µM (inactive),18.5 µM (inactive),6.85 µM (inactive),24.4 µM (inactive),17.7 µM (inactive),36.2 µM (inactive),34.9 µM (inactive),10 µM (inactive),45.8 µM (inactive)
COCCOC(=O)C1=C(O)c2ccccc2S(=O)(=O)N1C,> 100 µM (inactive),> 100 µM (inactive),> 100 µM (inactive),> 100 µM (inactive),> 100 µM (inactive),> 100 µM (inactive),> 100 µM (inactive),–,> 100 µM (inactive),> 100 µM (inactive),> 100 µM (inactive),> 100 µM (inactive),> 100 µM (inactive),> 100 µM (inactive),> 100 µM (inactive),> 100 µM (inactive),> 100 µM (inactive),> 100 µM (inactive),> 100 µM (inactive),> 100 µM (inactive)
CC(=O)[C@]1(O)Cc2c(O)c3c(c(O)c2[C@@H](OC2CC(N)C(O)C(C)O2)C1)C(=O)c1c(OCc2ccccc2)cccc1C3=O (some centres not stated),1.37 µM (inactive),2.07 µM (inactive),1.48 µM (inactive),0.605 µM (active),2.63 µM (inactive),0.75 µM (active),4.06 µM (inactive),–,3.33 µM (inactive),1.75 µM (inactive),–,0.14 µM (active),1.92 µM (inactive),0.738 µM (active),1.64 µM (inactive),2.32 µM (inactive),1.46 µM (inactive),1.63 µM (inactive),0.132 µM (active),1.54 µM (inactive)

# From ChEMBL document CHEMBL1201862, “PubChem BioAssay data set” (2004)
